US20070173545A1, “Activation of hypoxia-inducible gene expression” (priority 2003, published 2007)
Entries after “also recorded” stand apart in the source; their conditions may differ. Where two headings read alike, the source gives them in different places.

What was measured:
HIF-1a protein [1] = experiment: HIF-1a levels in nuclear extracts of U87 glioma cells (western blot); assay type: cell-based, human; conditions: for Effect on induction of HIF-1a by glucose (Krebs buffer): 50 μM IAA, 1 mM 4-CIN, NAD or NADH 3 mM each, catalase 1000 and 2000 units/ml; for HIF-1a accumulation, glucose replaced with metabolite: glucose-free Krebs, 3 mM concentrations
Method: (A) U87 glioma cells cultured in DMEM were switched to Krebs buffer containing 5.5 mM glucose (Glc) and then evaluated for nuclear HIF-1a levels at various times by western blot analysis. (B) HIF-1a levels were measured after four hours incubation of cells in Krebs buffer containing the indicated glucose concentrations or with 5.5 mM 2-deoxyglucose (2-DG) substituted for glucose. (C) HIF-1a levels were measured in U87 cells cultured in glucose-free Krebs buffer following treatment for four hours under normoxia (21% oxygen) hypoxia (1% oxygen) or with 150 μm desferrioxamine (DFO). (D) Induction of HIF-1a by glucose was monitored in the presence of 50 μM IAA or 1 mM 4-CIN. […] Results are representative of experiments repeated at least three times.
Similar measurements were made in the presence of 50 μM IAA or in glucose-free Krebs buffer. […] HIF-1a induction by four hours treatment with 5.5 mM glucose-containing Krebs (Glc) is shown for comparison. (E) Digitonin-permeabilized cells were treated with 1% oxygen or Krebs containing either 5.5 mM glucose or 2 mM pyruvate in the presence of 50 μM IAA. Permeabilized cell in lanes 5 and 6 were treated with 3 mM NAD or NADH respectively in glucose free Krebs. Nuclear HIF-1a levels were determined four hours later. (F) HIF-1a levels were determined after four hour treatment of cells in glucose-free Krebs (lane 1) or 5.5 mM Glucose containing Krebs. […] (H) To measure the decay of the HIF-1a protein, HIF-1a measurements were made after four hour treatment under hypoxia (lane 1), four hours hypoxia followed by 30 minutes normoxia (lane 2), four hour treatment with 150 μM DFO (lane 3), four hours DFO followed by addition of 100 μM CHX for one hour (lane 4), four hours treatment with 2 mM pyruvate (lane 5), and four hours pyruvate followed by addition of 100 μM CHX for one hour (lane 6). (H) HIF-1a levels were determined in digitonin-permeabilized cells treated for four hour with Krebs containing no glucose (lane 1), 1 mM pyruvate (lane 2), or 1 mM pyruvate and 10 mM 2-OG (lane 3).
In order to resolve the biochemical mechanisms underlying this phenomenon, we studied the human glioma cell line U-87 under conditions of carefully defined culture media. Thus we studied these cells while culturing them in freshly prepared Krebs buffer, all components of which were known to us.
To precisely define the glucose metabolite mediating HIF-1a accumulation, we utilized pharmacological inhibitors of glycolysis as well as the direct addition of different glucose metabolites to cells (FIG. 4).

HRE containing promoter = experiment: HRE-luciferase reporter in U251 cells; assay type: cell-based, human
Excerpt: FIG. 18: 2-oxoacids activate HIF-mediated gene expression in human cell lines Effective gene expression by HIF not only involves HIF protein stabilization via inhibition of HPH enzymes but also HIF-1 binding to DNA, inhibition of FIH-1 activity, and gene transcription (see FIG. 1). (A) Glioma cells used in our studies express FIH-1 as assessed using RT-PCR. […] Expression of beta-actin, a housekeeping gene not under HIF regulation is not affected by pyruvate. […] (E) U373 cell were transfected with a green fluorescent protein (GFP) construct under the control of an HIF regulatory element (HRE) containing promoter and then cultured for eight hours in glucose-free medium under the indicated conditions. […] U251 cells stably transfected with a luciferase construct under the control of an HRE containing promoter were cultured for six hours in glucose free Krebs with the following conditions: 1=control, 2=1% oxygen, 3=pyruvate (2 mM), 4=OAA (2 mM), 5=Ethylpyruvate (2 mM), 6=Glucose (5.5 mM), 7=DMOG (0.5 mM), 8=Lactacystin-beta lactone ([…]).
FIG. 19: HIF-mediated gene expression is selectively reversed by ascorbate U251 cells stably expressing HRE-luciferase were cultured in glucose-free Krebs buffer with the indicated conditions for eight hours. Pyruvate, oxaloacetate, and DMOG were added at 1 mM each.
Effective gene expression by HIF not only involves HIF protein stabilization via inhibition of HPH enzymes but also HIF-1 binding to DNA, inhibition of FIH-1 activity, and gene transcription. The human gliomas that we utilized for most of our studies all express mRNA for FIH-1 (FIG. 18A). […] To directly assess activation of gene containing an HRE regulated promoter by the glucose metabolites pyruvate and oxaloacetate, we used U373 glioma cells transfected with an HRE-green fluorescent (HRE-GFP) construct that responds to HIF activation.

HPH-1 [2] = target: T1, HPH-1 (Homo sapiens, UniProt Q9H6Z9); conditions: 20 mM competitor, ^35S-HPH-1, total binding
T1 sequence (Q9H6Z9 whole entry): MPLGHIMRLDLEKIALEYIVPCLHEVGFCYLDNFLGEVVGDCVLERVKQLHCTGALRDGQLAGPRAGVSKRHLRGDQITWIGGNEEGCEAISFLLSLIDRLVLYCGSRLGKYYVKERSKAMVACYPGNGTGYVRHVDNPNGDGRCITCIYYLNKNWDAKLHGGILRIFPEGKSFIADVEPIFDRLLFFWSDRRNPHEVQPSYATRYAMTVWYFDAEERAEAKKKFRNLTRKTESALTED
Method: Following four further washes radiolabel associated with the pellets was measured via scintillation counting.
We also prepared ^35S-labeled HPH homologues from expression plasmids using the rabbit reticulocyte culture system (Bruick et al. (2001) Science 294, 1337-1340). The 2-OG column allowed us to investigate the binding of ^35S-HPH as well as potential competitors of binding.

HPH-1 [3] = target: T1, HPH-1; experiment: ^35S-pVHL capture assay, HPH-1; assay type: biochemical; set-up: made in house; host or cells: rabbit reticulocyte in vitro translation from expression plasmids; conditions: assay optimization shown for HPH-1, dose curves
Method: After incubating the peptide with the HPHs and the indicated reagents, ^35S-pVHL was added followed by addition of streptavidin-coated beads to pull down the HIF-1a peptide. The reaction was pelleted, the pellet was washed and then solubilized for SDS-PAGE analysis followed by autoradiography to reveal the captured ^35S-pVHL. Using in vitro translated HPH homologues we first optimized assay conditions with respect to the required HPH substrates and co-factors. […] Conditions: ascorbate=2 mM, 2-OG=2 mM, DTT=1 mM. […] In all assays 5 μl (about 20 ng) of enzyme and 1 μg of peptide was utilized.
Ascorbate concentrations were varied as indicated and OAA or Pyr were added where indicated at 1 mM.
After incubating 1 μg amount of the peptide with in vitro translated HPH and the indicated reagents, ^35S-pVHL was added followed by the addition of Streptavidin-coated beads to pull down the HIF-1a peptide. The reaction was pelleted, and the pellet was washed and solubilized for SDS-PAGE analysis followed by autoradiography to reveal the captured ^35S-pVHL. Using each of the in vitro translated HPH homologues we first optimized assay conditions with respect to the required HPH substrates and co-factors.

HIF-1a [4] = experiment: HIF-1a induction in digitonin-permeabilized human glioma cells (U87, U251); assay type: cell-based; conditions: 1 mM ATP
HIF-1a [5] = experiment: as above; assay type: cell-based; conditions: 1 mM doses
Method: We determined the ability of each shown structure to induce HIF by exposing digitonin-permeabilized human glioma cells (U87, U251) to 1 mM doses.
At four hours, ATP levels were measured in cell extracts using the luciferase method.
(§1) In order to investigate the mechanism of action of the 2-oxoacid HIF inducers that we identified we first determined their effects upon cellular ATP levels. […] As shown in the scheme in FIG. 1, cellular levels of HIF-1a can be elevated by blockade of proteasomal activity, ubiquitinylation, or prolyl hydroxylation. Inhibition of the proteasome by lactacystin beta-lactone (Lbl) leads to accumulation of HIF-1a in its polyubiquitinylated form which generally appears as a smear of higher molecular weight species on western blots. […] Cellular accumulation and nuclear translocation of HIF-1a can also be studied via immunohistochemistry. For this purpose we utilized U251 cells which are more adherent to cell culture dishes that the U87 cells.

HIF-1a protein [6] = experiment: Nuclear HIF-1a accumulation in glioma cells by immunohistochemistry; assay type: cell-based, human; conditions: 2 mM, four hours, glucose-free Krebs buffer, Lbl 20 μM
Excerpt: Cells were then washed, fixed and stained for HIF-1a protein.
as §1

## O=CC[C@@H](O)[C@H](O)[C@H](O)CO [2-deoxyglucose]
HIF-1a protein [1]; Krebs buffer with glucose or 5.5 mM 2-deoxyglucose, four hours, normoxia
  HIF-1a levels: could not be mimicked

## O=C(O)CCC(=O)C(=O)O [2-oxoglutarate]
HRE containing promoter; eight hours, oxaloacetate 1 mM, 2-oxoglutarate 10 mM
  Reversal of HRE-luciferase activation by pyruvate or oxaloacetate: No reversal was seen
HPH-1 [2]
  Displacement of HPH binding to the 2-oxoglutarate column: Nearly half of the total binding of HPH to the 2-oxoglutarate column could be displaced
HPH-1 [2]; listed as 2-OG
  Displacement of HPH binding to the 2-oxoglutarate column: could displace this binding
HPH-1 [3]
  Requirement of substrates and co-factors for HPH activity: absolutely required for activity

## Nc1ncnc2c1ncn2[C@@H]1O[C@H](COP(=O)(O)OP(=O)(O)OP(=O)(O)O)[C@@H](O)[C@H]1O [ATP]
HIF-1a [4]
  HIF-1a levels after direct addition of ATP: did not raise basal HIF-1a levels; also recorded: had no effect on HIF-1a levels

## O=C(O)C=Cc1ccc(O)cc1 [Cinnamate, 4-hydroxycinnamate]
HIF-1a protein [1]
  Effect on induction of HIF-1a by glucose (Krebs buffer): did not prevent the effect of Krebs buffer on HIF-1a accumulation

## NC(=O)CI [Iodoacetamide]
HIF-1a protein [1]
  Effect on induction of HIF-1a by glucose (Krebs buffer): completely blocked the ability of Krebs buffer to stimulate HIF-1a accumulation

## O=S(=O)([O-])[O-].[Fe+2] [Iron, iron sulfate]
HPH-1 [3]
  Requirement of substrates and co-factors for HPH activity: absolutely required up to a maximal of about 100 μM

## NC(=O)C1=CN([C@@H]2O[C@H](COP(=O)(O)OP(=O)(O)OC[C@H]3O[C@@H](n4cnc5c(N)ncnc54)[C@H](O)[C@@H]3O)[C@@H](O)[C@H]2O)C=CC1 [NADH]
HIF-1a protein [1]
  Effect on induction of HIF-1a by glucose (Krebs buffer): neither NAD or NADH (3 mM each) had any effect on this induction

## NC(=O)c1ccc[n+]([C@@H]2O[C@H](COP(=O)([O-])OP(=O)(O)OC[C@H]3O[C@@H](n4cnc5c(N)ncnc54)[C@H](O)[C@@H]3O)[C@@H](O)[C@H]2O)c1 [NAD]
HIF-1a protein [1]
  Effect on induction of HIF-1a by glucose (Krebs buffer): neither NAD or NADH (3 mM each) had any effect on this induction

## C[C@H](N)C(=O)O [alanine]
HIF-1a protein [1]; four hours
  HIF-1a accumulation, glucose replaced with metabolite: without effect

## CC[C@H](C)C(=O)C(=O)O [alpha-keto-beta-methylvalerate]
HIF-1a [5]
  Ability to induce HIF (HIF-1a accumulation), structure-activity: capable of stimulating HIF-1a accumulation

## O=C(O)CCCC(=O)C(=O)O [alpha-ketoadipate]
HIF-1a [5]
  Ability to induce HIF (HIF-1a accumulation), structure-activity: ineffectiveness

## CCC(=O)C(=O)O [alpha-ketobutyrate]
HIF-1a [5]
  Ability to induce HIF (HIF-1a accumulation), structure-activity: ineffectiveness

## CC(C)CC(=O)C(=O)O [alpha-ketoisocaproate]
HIF-1a [5]
  Ability to induce HIF (HIF-1a accumulation), structure-activity: capable of stimulating HIF-1a accumulation

## CC(C)C(=O)C(=O)O [alpha-ketoisovalerate]
HIF-1a [5]
  Ability to induce HIF (HIF-1a accumulation), structure-activity: capable of stimulating HIF-1a accumulation

## O=C(O)CC(O)(CC(=O)O)C(=O)O [citrate]
HIF-1a protein [1]; four hours
  HIF-1a accumulation, glucose replaced with metabolite: without effect

## CCOC(=O)C(C)=O [ethylpyruvate, Ethylpyruvate]
HIF-1a protein [1]; four hours
  HIF-1a accumulation, glucose replaced with metabolite: as pronounced as those of the known 2-oxoglutarate antagonist dimethyloxalylglycine (DMOG)
HIF-1a [5]
  Ability to induce HIF (HIF-1a accumulation), structure-activity: identified as HIF-1 activators
HRE containing promoter; six hours, glucose free Krebs, pyruvate, OAA, Ethylpyruvate 2 mM, Lactacystin-beta lactone 20 mM
  HRE-luciferase expression: prominent activation of luciferase gene expression

## O=C(O)CC(O)C(=O)O (stereo not shown) [malate]
HIF-1a [5]
  Ability to induce HIF (HIF-1a accumulation), structure-activity: ineffective

## Catalase
HIF-1a protein [1]
  Effect on induction of HIF-1a by glucose (Krebs buffer): had no effect

## lactate
HIF-1a protein [1]; four hours
  HIF-1a accumulation, glucose replaced with metabolite: activate HIF-1a directly

## succinate
HIF-1a protein [1]; four hours
  HIF-1a accumulation, glucose replaced with metabolite: without effect
HIF-1a protein [6]
  Nuclear HIF-1a accumulation (immunostaining): ineffectiveness
HIF-1a protein [6]; listed as Succinate
  Nuclear HIF-1a accumulation (immunostaining): does not affect HIF-1a accumulation
HPH-1 [2]
  Displacement of HPH binding to the 2-oxoglutarate column: could not; also recorded: but not by 20 mM succinate
